Results taken from the supplement of paper PMC7840683.
± gives the standard deviation of the averaged measurements.

Test system: HepaRG
Experiment: LDH release cytotoxicity, % of total lysis control; higher = more cytotoxic
Conditions: 48 h
Procedure, shortened: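 Eight-point half-log series of test chemicals, the highest at 100 µM, were given in duplicate for 48 h to single-lot HepaRG cells on collagen I-coated 96-well plates in serum-free induction medium with 0.5% DMSO. A Tecan Safire read resorufin fluorescence from CytoTox-ONE as a measure of LDH in 50 µL spent medium, with 0.1% Triton X in total lysis wells. Percent cytotoxicity was normalized to on-plate vehicle and total lysis controls and averaged over the duplicates.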

CON=C(C(=O)OC)c1ccccc1CON=C(C)c1cccc(C(F)(F)F)c1 [Trifloxystrobin]
Conditions	LDH release cytotoxicity [%]
0.03162 µM	-0.083 ± 0.59
0.1 µM	-0.478 ± 0.33
0.3162278 µM	-0.545 ± 0.8
1 µM	0.0357 ± 0.72
3.16228 µM	-0.301 ± 0.36
10 µM	0.277 ± 0.53
31.6228 µM	0.163 ± 1.6
100 µM	1.57 ± 1.4

CCCCN(CCCC)CCCC [Tributylamine]
Conditions	LDH release cytotoxicity [%]
0.03162 µM	-2.12 ± 0.98
0.1 µM	-1.33 ± 1.8
0.3162278 µM	-2.67 ± 0.73
1 µM	-2.57 ± 1
3.16228 µM	-2.21 ± 0.52
10 µM	-2.383 ± 0.0034
31.6228 µM	-2.97 ± 0.18
100 µM	3.29 ± 1.9

CNC(=O)Oc1cccc2c1OC(C)(C)O2 [Bendiocarb]
Conditions	LDH release cytotoxicity [%]
0.031623 µM	-1.26 ± 1.2
0.1 µM	-1.64 ± 2.2
0.316228 µM	-0.794 ± 0.9
1 µM	-1.67 ± 1.8
3.16228 µM	-1.78 ± 0.89
10 µM	-2.76 ± 2.2
31.6228 µM	-2.289 ± 0.017
100 µM	-2.6 ± 0.88

Cc1ccccc1Cl [2-Chlorotoluene]
Conditions	LDH release cytotoxicity [%]
0.03162 µM	-1.99 ± 0.36
0.1 µM	-1.94 ± 0.73
0.3162278 µM	-2.27 ± 0.5
1 µM	-1.84 ± 0.56
3.16228 µM	-2.6 ± 0.59
10 µM	-1.26 ± 0.43
31.6228 µM	-0.387 ± 0.48
100 µM	0.838 ± 0.49

Fc1ccccc1C(F)COC1CCC(Nc2[nH]cnc3nncc2-3)CC1 (centres undefined) [MK-968]
Conditions	LDH release cytotoxicity [%]
0.03162 µM	-1.09 ± 1.7
0.1 µM	-1.55 ± 0.47
0.3162278 µM	-2.19 ± 0.36
1 µM	-2.2 ± 0.68
3.16228 µM	-2.43 ± 0.47
10 µM	-2.42 ± 0.46
31.6228 µM	1.23 ± 0.027
100 µM	10.8 ± 2.6

C=CN1CCCC1=O [N-Vinyl-2-pyrrolidone]
Conditions	LDH release cytotoxicity [%]
0.01581 µM	-1.31 ± 0.34
0.05 µM	-2.25 ± 0.44
0.1581139 µM	-2.68 ± 0.3
0.5 µM	-2.71 ± 0.27
1.5811388 µM	-2.96 ± 0.54
5 µM	-2.54 ± 0.67
15.8114 µM	-1.96 ± 0.93
50 µM	-0.521 ± 0.9

CCN(CC)c1nc(C)cc(OP(=S)(OC)OC)n1 [Pirimiphos-methyl]
Conditions	LDH release cytotoxicity [%]
0.03162 µM	0.287 ± 2
0.1 µM	-1.19 ± 1.6
0.3162278 µM	-1.08 ± 0.22
1 µM	-0.906 ± 0.67
3.16228 µM	-1.49 ± 0.077
10 µM	-0.783 ± 0.59
31.6228 µM	-1.01 ± 0.3
100 µM	-1.29 ± 0.47

CCC(C)(C)C(=O)OC1=C(c2ccc(Cl)cc2Cl)C(=O)OC12CCCCC2 [Spirodiclofen]
Conditions	LDH release cytotoxicity [%]
0.03162 µM	-0.904 ± 0.1
0.1 µM	-1.21 ± 1.1
0.3162278 µM	-0.287 ± 0.5
1 µM	-1.32 ± 0.39
3.16228 µM	-1.74 ± 0.89
10 µM	0.0779 ± 0.41
31.6228 µM	-1.05 ± 0.14
100 µM	0.552 ± 0.59

OC1CCC(C2CCCCC2)CC1 (centres undefined) [4-Cyclohexylcyclohexanol]
Conditions	LDH release cytotoxicity [%]
0.03162 µM	-1.67 ± 0.32
0.1 µM	-1.27 ± 1.5
0.3162278 µM	-1.62 ± 1.1
1 µM	-2.39 ± 0.036
3.16228 µM	-2.08 ± 1.7
10 µM	-1.58 ± 0.49
31.6228 µM	-1.22 ± 0.35
100 µM	0.00977 ± 0.63

CCOP(=O)(OCC)Oc1cc(C)nc(C(C)C)n1 [Diazoxon]
Conditions	LDH release cytotoxicity [%]
0.03162 µM	-0.61 ± 0.39
0.1 µM	-1.35 ± 0.75
0.3162278 µM	-0.708 ± 1.4
1 µM	-1.37 ± 1.6
3.16228 µM	-1.41 ± 0.85
10 µM	-0.802 ± 2.1
31.6228 µM	-0.357 ± 1.4
100 µM	1.03 ± 2.2

O=C(CCCCCCCCc1cccnc1)N1CCC(C=C(c2ccccc2)c2ccccc2)CC1 [Ro 23-7637]
Conditions	LDH release cytotoxicity [%]
0.03162 µM	0.3 ± 0.18
0.1 µM	-1.044 ± 0.0079
0.3162278 µM	-0.912 ± 1.2
1 µM	-1.28 ± 0.79
3.16228 µM	-1.65 ± 0.1
10 µM	-1.03 ± 0.15
31.6228 µM	11.7 ± 0.14
100 µM	63.3 ± 1.2

CC1=C(C)S(=O)(=O)CCS1(=O)=O [Dimethipin]
Conditions	LDH release cytotoxicity [%]
0.03162 µM	-2.35 ± 1
0.1 µM	-2.52 ± 0.16
0.3162278 µM	-2.59 ± 0.038
1 µM	-3.12 ± 0.25
3.16228 µM	-2.6 ± 0.79
10 µM	-2.6 ± 0.88
31.6228 µM	-2.51 ± 1.3
100 µM	-1.52 ± 0.84

N#CC1CC(F)(F)CN1C(=O)CNC1CC2CCC(C1)N2c1ncccn1 (centres undefined)
Conditions	LDH release cytotoxicity [%]
0.03162 µM	-1.64 ± 0.046
0.1 µM	-2.99 ± 0.32
0.3162278 µM	-2.24 ± 0.023
1 µM	-2.72 ± 0.35
3.16228 µM	-2.06 ± 0.031
10 µM	-1.96 ± 0.71
31.6228 µM	-1.33 ± 0.77
100 µM	-1.49 ± 0.99

CCCOC(=O)c1cc(O)c(O)c(O)c1 [Propyl gallate]
Conditions	LDH release cytotoxicity [%]
0.031623 µM	0.488 ± 2.3
0.1 µM	-3.35 ± 1.2
0.316228 µM	-3.75 ± 0.63
1 µM	-4.27 ± 0.64
3.16228 µM	-3.65 ± 0.077
10 µM	-3.8 ± 0.18
31.6228 µM	-4.52 ± 0.15
100 µM	-3.34 ± 1.5

CCc1cccc(CC)c1N [2,6-Diethylaniline]
Conditions	LDH release cytotoxicity [%]
0.03162 µM	-1.27 ± 1.1
0.1 µM	-2.24 ± 0.81
0.3162278 µM	-1.42 ± 0.19
1 µM	-0.395 ± 0.46
3.16228 µM	-0.592 ± 0.21
10 µM	-1.25 ± 1.1
31.6228 µM	-0.819 ± 0.47
100 µM	-0.482 ± 0.8

CCC(C)(C)c1ccc(O)cc1 [4-(2-Methylbutan-2-yl)phenol]
Conditions	LDH release cytotoxicity [%]
0.03162 µM	-0.822 ± 0.23
0.1 µM	-1.57 ± 0.82
0.3162278 µM	-1.05 ± 0.14
1 µM	-1.22 ± 0.6
3.16228 µM	-1.65 ± 0.4
10 µM	-0.249 ± 0.14
31.6228 µM	-1.75 ± 1.1
100 µM	0.707 ± 0.61

CC(C)(C)C(O)(CCc1ccc(Cl)cc1)Cn1cncn1 (centres undefined) [Tebuconazole]
Conditions	LDH release cytotoxicity [%]
0.03162 µM	-1.4 ± 0.64
0.1 µM	-0.0947 ± 0.069
0.3162278 µM	-1.08 ± 1.2
1 µM	-1.1 ± 1.6
3.16228 µM	-0.155 ± 0.14
10 µM	-0.0217 ± 1.5
31.6228 µM	1.4 ± 1
100 µM	16.5 ± 0.49

N#CSCSC#N [Methylene bis(thiocyanate)]
Conditions	LDH release cytotoxicity [%]
0.03162 µM	0.59 ± 0.13
0.1 µM	0.474 ± 0.14
0.3162278 µM	-0.978 ± 0.4
1 µM	-0.877 ± 0.43
3.16228 µM	-0.508 ± 0.021
10 µM	0.525 ± 0.24
31.6228 µM	3.74 ± 0.86
100 µM	66.1 ± 1.7

C1CC2OC2CC1C1CO1 (centres undefined) [4-Vinyl-1-cyclohexene dioxide]
Conditions	LDH release cytotoxicity [%]
0.03162 µM	-0.357 ± 0.0064
0.1 µM	-1.96 ± 0.94
0.3162278 µM	-2.19 ± 0.42
1 µM	-1.67 ± 0.053
3.16228 µM	-1.29 ± 0.3
10 µM	-1.43 ± 0.099
31.6228 µM	-0.613 ± 1.2
100 µM	78.1 ± 2.9

Oc1cccc2cccnc12 [8-Hydroxyquinoline]
Conditions	LDH release cytotoxicity [%]
0.03162 µM	-1.07 ± 0.79
0.1 µM	-1.23 ± 0.047
0.3162278 µM	-1.16 ± 0.3
1 µM	-1.2 ± 0.24
3.16228 µM	-1.01 ± 0.27
10 µM	-0.111 ± 1.7
31.6228 µM	0.218 ± 1.5
100 µM	2.33 ± 0.36

CCN(CC)CCNc1ccc(CNC=O)c2sc3ccc(OC)cc3c(=O)c12
Conditions	LDH release cytotoxicity [%]
0.03162 µM	-0.844 ± 1.3
0.1 µM	-1.66 ± 0.14
0.3162278 µM	-0.986 ± 0.35
1 µM	-1.41 ± 0.78
3.16228 µM	1.37 ± 0.86
10 µM	2.31 ± 0.54
31.6228 µM	5.144 ± 0.031
100 µM	81.1 ± 6.4

Cc1cccc([N+](=O)[O-])c1 [3-Nitrotoluene]
Conditions	LDH release cytotoxicity [%]
0.0324133 µM	-0.599 ± 0.21
0.1025 µM	-1.561 ± 0.014
0.324134 µM	-1.45 ± 0.26
1.025 µM	-0.805 ± 0.87
3.24133 µM	-1.27 ± 0.12
10.25 µM	-0.551 ± 0.69
32.4133 µM	-0.321 ± 0.16
102.5 µM	0.844 ± 1.1

CCCCCCCCCCCCCCC [Pentadecane]
Conditions	LDH release cytotoxicity [%]
0.03162 µM	-1.39 ± 0.28
0.1 µM	-0.5079 ± 0.0034
0.3162278 µM	-0.0639 ± 1.3
1 µM	-1.27 ± 1.5
3.16228 µM	-0.987 ± 0.93
10 µM	-0.163 ± 0.94
31.6228 µM	0.517 ± 0.29
100 µM	1.96 ± 1.3

O=C(O)C(F)(F)C(F)(F)C(F)(F)C(F)(F)C(F)(F)C(F)(F)C(F)(F)C(F)(F)C(F)(F)F [Perfluorodecanoic acid]
Conditions	LDH release cytotoxicity [%]
0.031623 µM	2.61 ± 0.091
0.1 µM	-0.365 ± 0.079
0.316228 µM	-0.683 ± 1.6
1 µM	-0.768 ± 0.65
3.16228 µM	-7.62 ± 0.32
10 µM	7.64 ± 0.07
31.6228 µM	8.49 ± 0.18
100 µM	44.4 ± 6.8

COCCO [2-Methoxyethanol]
Conditions	LDH release cytotoxicity [%]
0.03162 µM	-2.71 ± 0.16
0.1 µM	-2.42 ± 0.11
0.3162278 µM	-1.84 ± 0.67
1 µM	-2.08
3.16228 µM	-2.13 ± 0.46
10 µM	-1.562 ± 0.005
31.6228 µM	0.278 ± 0.11
100 µM	2.52 ± 0.4

CC(C)(C)c1ccccc1O [2-tert-Butylphenol]
Conditions	LDH release cytotoxicity [%]
0.03162 µM	-1.05 ± 0.97
0.1 µM	-1.24 ± 0.37
0.3162278 µM	-1.22 ± 0.3
1 µM	-1.31 ± 1.3
3.16228 µM	-0.599 ± 0.044
10 µM	-0.21 ± 0.92
31.6228 µM	-0.521 ± 0.091
100 µM	0.121 ± 1

O=C(O)C(F)(F)C(F)(F)C(F)(F)C(F)(F)C(F)(F)C(F)(F)C(F)(F)C(F)(F)C(F)(F)C(F)(F)F [Perfluoroundecanoic acid]
Conditions	LDH release cytotoxicity [%]
0.0302 µM	-0.896 ± 0.4
0.0955 µM	-2.14 ± 0.16
0.301998 µM	-0.462 ± 0.4
0.955 µM	-1.31 ± 0.4
3.01998 µM	-1.93 ± 0.38
9.55 µM	-1.78 ± 2
30.1998 µM	-0.387 ± 0.52
95.5 µM	1.42 ± 0.46

COc1cc(-c2nc(NC(=O)c3cc4cc(C)cc(C)c4n3CC(=O)O)sc2CCC2CCCCC2)c(OC)cc1Cl
Conditions	LDH release cytotoxicity [%]
0.0267212 µM	0.271 ± 0.48
0.0845 µM	-0.13 ± 0.2
0.267213 µM	-0.107 ± 0.19
0.845 µM	0.419 ± 0.64
2.67212 µM	-0.184 ± 1
8.45 µM	37.3 ± 4.1
26.7212 µM	67.7 ± 1.7
84.5 µM	78.3 ± 3.5
